Laboratory results taken from paper PMC10282093, “Structural basis of α1A-adrenergic receptor activation and recognition by an extracellular nanobody” (Nature Communications, 2023).
“And” between values parts separate entries of the source, which are not always exact repeats. Identical values can stand only once.

Key:
[1] = target: T1, α1AAR (Homo sapiens, UniProt P35348); assay: [3H]prazosin radioligand binding, Sf9 membranes
T1 sequence (P35348 1-370): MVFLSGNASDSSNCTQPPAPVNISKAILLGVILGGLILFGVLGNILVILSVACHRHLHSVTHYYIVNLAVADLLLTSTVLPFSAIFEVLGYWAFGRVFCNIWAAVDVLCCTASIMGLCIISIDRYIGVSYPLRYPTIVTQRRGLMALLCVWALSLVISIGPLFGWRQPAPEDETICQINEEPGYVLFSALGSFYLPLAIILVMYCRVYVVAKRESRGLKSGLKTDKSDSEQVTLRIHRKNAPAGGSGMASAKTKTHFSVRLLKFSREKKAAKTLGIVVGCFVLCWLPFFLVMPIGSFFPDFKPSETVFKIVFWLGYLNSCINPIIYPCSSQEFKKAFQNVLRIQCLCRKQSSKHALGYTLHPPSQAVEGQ
Description: (§1) After centrifugation, the pellet was homogenized in binding buffer and used as the membrane fraction in binding assays. […] Receptors were incubated for 1 h at room temperature with various concentrations of ligand in a total volume of 100 µl. After the reaction, the mixture was trapped on Whatman GF/B glass filters. Bound and free radioligands were separated by washing with ice-cold binding buffer. Radioactivity was measured on a MicroBeta2 liquid scintillation counter (PerkinElmer).

[2] = target: T2, α1DAR (Homo sapiens, UniProt P25100); assay: [3H]prazosin radioligand competition binding, Sf9 membranes; conditions: 1 h
T2 construct: made in house; host or cells: Sf9 insect cells (membranes)
T2 sequence (P25100 1-572): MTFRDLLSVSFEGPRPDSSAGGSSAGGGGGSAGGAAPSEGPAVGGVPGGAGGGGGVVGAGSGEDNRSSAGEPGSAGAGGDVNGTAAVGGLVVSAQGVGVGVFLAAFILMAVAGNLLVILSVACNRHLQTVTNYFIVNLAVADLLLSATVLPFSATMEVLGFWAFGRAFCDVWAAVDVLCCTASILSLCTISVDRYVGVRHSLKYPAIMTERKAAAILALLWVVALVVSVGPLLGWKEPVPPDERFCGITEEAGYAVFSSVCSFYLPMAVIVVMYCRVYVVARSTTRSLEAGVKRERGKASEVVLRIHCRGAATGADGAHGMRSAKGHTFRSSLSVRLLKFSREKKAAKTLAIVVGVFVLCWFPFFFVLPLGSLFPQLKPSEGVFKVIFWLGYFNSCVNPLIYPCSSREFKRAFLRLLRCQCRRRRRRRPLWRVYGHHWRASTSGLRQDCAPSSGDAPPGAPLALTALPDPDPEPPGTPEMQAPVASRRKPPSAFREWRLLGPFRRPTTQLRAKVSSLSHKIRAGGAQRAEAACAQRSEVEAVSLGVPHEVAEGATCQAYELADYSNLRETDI
Description: as §1

[3] = tested on: HEK293T cells (mock); assay: Glo-sensor cAMP assay, mock (negative control); assay type: cell-based
Description: In brief, […] plasmid, receptor plasmid, and Gsq plasmid were transfected into HEK293T cells. At 24 h after transfection, the cells were switched into a CO2-Independent Medium (Gibco) and incubated with GloSensor^TM cAMP reagent. The mixture was then transferred to a 96-well white plate. The 96-well plate is placed at 37 °C in the dark for 1 h, then placed at room temperature in the dark for 1 h before use. […] The result curves were calculated and fitted by GraphPad Prism 9.

[4] = target: T3, α1AAR (Homo sapiens, UniProt P35348); assay: Glo-sensor cAMP signaling assay with engineered Gsq protein in HEK293T cells
T3 sequence (P35348 1-466): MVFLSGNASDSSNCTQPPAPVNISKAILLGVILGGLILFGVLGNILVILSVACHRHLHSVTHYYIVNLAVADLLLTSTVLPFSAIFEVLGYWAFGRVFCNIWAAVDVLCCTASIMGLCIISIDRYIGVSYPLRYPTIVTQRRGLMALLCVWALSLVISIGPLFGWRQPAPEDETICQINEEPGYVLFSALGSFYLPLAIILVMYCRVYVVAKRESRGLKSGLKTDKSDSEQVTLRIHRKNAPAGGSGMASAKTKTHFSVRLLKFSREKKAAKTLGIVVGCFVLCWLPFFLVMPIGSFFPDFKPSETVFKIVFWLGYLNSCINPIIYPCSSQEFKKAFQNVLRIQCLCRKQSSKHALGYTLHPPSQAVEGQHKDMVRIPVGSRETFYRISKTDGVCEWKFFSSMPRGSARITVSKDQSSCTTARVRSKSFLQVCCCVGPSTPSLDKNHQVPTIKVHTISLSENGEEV
Description: In brief, pGloSensor™−22F plasmid, receptor plasmid, and Gsq plasmid were transfected into HEK293T cells. At 24 h after transfection, the cells were switched into a CO2-Independent Medium (Gibco) and incubated with GloSensor^TM cAMP reagent. The mixture was then transferred to a 96-well white plate. The 96-well plate is placed at 37 °C in the dark for 1 h, then placed at room temperature in the dark for 1 h before use. […] The result curves were calculated and fitted by GraphPad Prism 9.

[5] = tested on: α1ARs over α2ARs; conditions: cited from earlier work
[6] = target: T4, purified α1AAR fused at the C-terminus to an enhanced green fluorescent protein (Homo sapiens, UniProt P35348, N7Q | N13Q | N22Q); assay: flow cytometry on cells; on-yeast titration as a1, in the presence of 500 μM noradrenaline; conditions: one partner purified
T4 construct: α1A-adrenergic receptor, human; Used in the on-yeast titration with or without 500 μM ligand (oxymetazoline, noradrenaline, tamsulosin, phentolamine); not shown: EGFP, C-terminal, kept

[7] = target: T4, purified α1AAR fused at the C-terminus …; assay: flow cytometry on cells; on-yeast titration as a1, in the presence of 500 μM oxymetazoline; conditions: one partner purified
[8] = target: T3, α1AAR

Cc1cc(C(C)(C)C)c(O)c(C)c1CC1=NCCN1 [Oxymetazoline, oxymetazoline]
[3H]prazosin binding ([1]; Fig 1c, oxymetazoline Log[M] -4): 10.9281% and 8.737% and 2.765%
[3H]prazosin binding ([1]; Fig 1c, oxymetazoline Log[M] -5): 28.5329% and 15.8053% and 21.6214%
[3H]prazosin binding ([1]; Fig 1c, oxymetazoline Log[M] -6): 48.3547% and 40.7911% and 47.5462%
[3H]prazosin binding ([1]; Fig 1c, oxymetazoline Log[M] -7): 71.541% and 85.4423% and 88.1547%
[3H]prazosin binding ([1]; Fig 1c, oxymetazoline Log[M] -8): 80.5129% and 95.3793% and 78.3743%
[3H]prazosin binding ([1]; Fig 1c, oxymetazoline Log[M] -9): 85.0772% and 90.4238% and 92.4582%
[3H]prazosin binding ([1]; Fig 1c, oxymetazoline Log[M] -10): 89.85% and 99.1089% and 88.2591%
[3H]prazosin binding ([1]; SupFig 3a, oxymetazoline Log[M] -4): 12.1047% and 12.5905% and 4.0484%
[3H]prazosin binding ([1]; SupFig 3a, oxymetazoline Log[M] -5): 17.0033% and 16.477% and 26.9623%
[3H]prazosin binding ([1]; SupFig 3a, oxymetazoline Log[M] -6): 53.0745% and 43.3179% and 35.5045%
[3H]prazosin binding ([1]; SupFig 3a, oxymetazoline Log[M] -7): 77.4054% and 89.6316% and 82.5874%
[3H]prazosin binding ([1]; SupFig 3a, oxymetazoline Log[M] -8): 97.364% and 96.109% and 85.3403%
[3H]prazosin binding ([1]; SupFig 3a, oxymetazoline Log[M] -9): 100.805% and 102.506% and 100.765%
[3H]prazosin binding ([1]; SupFig 3a, oxymetazoline Log[M] -10): 92.5464% and 102.06% and 94.2468%
[3H]prazosin binding ([1]; SupFig 3a, oxymetazoline Log[M] -11): 99.0644% and 106.675% and 101.331%
[3H]prazosin binding ([1]; SupFig 5b, Oxy Log[M] -4, listed as Oxy): 3.711% and 5.398% and 5.024%
[3H]prazosin binding ([1]; SupFig 5b, Oxy Log[M] -5, listed as Oxy): 10.3036% and 9.182% and 6.784%
[3H]prazosin binding ([1]; SupFig 5b, Oxy Log[M] -6, listed as Oxy): 25.9506% and 41.5063% and 33.8379%
[3H]prazosin binding ([1]; SupFig 5b, Oxy Log[M] -7, listed as Oxy): 92.3589% and 77.9429% and 95.5776%
[3H]prazosin binding ([1]; SupFig 5b, Oxy Log[M] -8, listed as Oxy): 101.851% and 78.107% and 77.5873%
[3H]prazosin binding ([1]; SupFig 5b, Oxy Log[M] -9, listed as Oxy): 102.225% and 74.633% and 114.735%
[3H]prazosin binding ([1]; SupFig 5b, Oxy Log[M] -10, listed as Oxy): 96.3983% and 104.267% and 110.313%
[3H]prazosin binding ([1]; SupFig 5b, Oxy Log[M] -11, listed as Oxy): 110.176% and 107.431% and 115.738%
[3H]prazosin binding ([1]; oxymetazoline Log[M] -4, + 5 μM Nb29): 2.395% and 8.488% and 7.551%
[3H]prazosin binding ([1]; oxymetazoline Log[M] -5, + 5 μM Nb29): 13.6695% and 16.4815% and 14.4506%
[3H]prazosin binding ([1]; oxymetazoline Log[M] -6, + 5 μM Nb29): 33.0932% and 34.9679% and 29.0314%
[3H]prazosin binding ([1]; oxymetazoline Log[M] -7, + 5 μM Nb29): 67.0717% and 63.0359% and 61.005%
[3H]prazosin binding ([1]; oxymetazoline Log[M] -8, + 5 μM Nb29): 88.2659% and 86.6777% and 81.6265%
[3H]prazosin binding ([1]; oxymetazoline Log[M] -9, + 5 μM Nb29): 85.0373% and 101.154% and 98.9412%
[3H]prazosin binding ([1]; oxymetazoline Log[M] -10, + 5 μM Nb29): 98.863% and 104.175% and 100.087%
remaining binding at 100 µM ([2]; oxymetazoline Log[M] -4): 40%
remaining binding at 10 µM ([2]; oxymetazoline Log[M] -5): 78%
remaining binding at 1 µM ([2]; oxymetazoline Log[M] -6): 104%
remaining binding at 0.01 µM ([2]; oxymetazoline Log[M] -8): 101%
remaining binding at 0.001 µM ([2]; oxymetazoline Log[M] -9): 85.5%
remaining binding at 0.0001 µM ([2]; oxymetazoline Log[M] -10): 96.6%
cAMP Glo-sensor signal (Noradrenaline %) ([3]; Oxy Log[M] -4, listed as Oxy): 20.5576% and 21.072% and 20.3482%
cAMP Glo-sensor signal (Noradrenaline %) ([3]; Oxy Log[M] -5, listed as Oxy): 16.9742% and 18.9752% and 17.0682%
cAMP Glo-sensor signal (Noradrenaline %) ([3]; Oxy Log[M] -6, listed as Oxy): 11.7764% and 12.3973% and 9.944%
cAMP Glo-sensor signal (Noradrenaline %) ([3]; Oxy Log[M] -7, listed as Oxy): 5.984% and 4.961% and 5.326%
cAMP Glo-sensor signal (Noradrenaline %) ([3]; Oxy Log[M] -8, listed as Oxy): 5.537% and 5.0478% and 4.209%
cAMP Glo-sensor signal (Noradrenaline %) ([3]; Oxy Log[M] -9, listed as Oxy): 5.27% and 4.932% and 5.142%
cAMP Glo-sensor signal (Noradrenaline %) ([3]; Oxy Log[M] -10, listed as Oxy): 5.3547% and 4.562% and 4.147%
cAMP Glo-sensor signal (Noradrenaline %) ([3]; Oxy Log[M] -11, listed as Oxy): 5.371% and 4.924% and 4.109%
activation at 100 µM ([4]; HEK-293T, read-out: α1AAR activation (Noradrenaline %), Oxy Log[M] -4): 79.5%
activation at 10 µM ([4]; HEK-293T, read-out: α1AAR activation (Noradrenaline %), Oxy Log[M] -5): 82.8%
activation at 1 µM ([4]; HEK-293T, read-out: α1AAR activation (Noradrenaline %), Oxy Log[M] -6): 89.5%
activation at 0.1 µM ([4]; HEK-293T, read-out: α1AAR activation (Noradrenaline %), Oxy Log[M] -7): 76.5%
activation at 0.01 µM ([4]; HEK-293T, read-out: α1AAR activation (Noradrenaline %), Oxy Log[M] -8): 64.3%
activation at 0.001 µM ([4]; HEK-293T, read-out: α1AAR activation (Noradrenaline %), Oxy Log[M] -9): 30.7%

(+)-cyclazosin
selectivity for α1ARs over α2ARs [5]: 100–1000 fold
subtype preference among α1ARs [5]: slight preference for α1BAR over α1AAR

B1: Nb29 displayed on yeast cells (VHH)
VHH: QVQLQESGGGLVQAGGSLRLSCAASGNISAHWKMGWYRQAPGKEREFVAGIGYANTNYADSVKGRFTISRDNAKNTVYLQMNSLKPEDTAVYYCAAYSYYRDHSYWGQGTQVTVSS
notes: Expression was detected with an anti-HA antibody; also called Nb29-expressing yeast cells
Kd [6]: 38.8 nM
Kd [7]: 37.6 nM

B2: Nb29: synthetic nanobody (single domain antibody) that binds the extracellular vestibule of α1AAR, preferentially oxymetazoline-bound (antibody, V domains shown)
VH: B1 VHH
[3H]prazosin binding ([1]; Nb29 Log[M] -4): 69.5661% and 61.694% and 66.6796%
[3H]prazosin binding ([1]; Nb29 Log[M] -5): 88.6049% and 105.399% and 83.0653%
[3H]prazosin binding ([1]; Nb29 Log[M] -6): 111.871% and 107.935%
[3H]prazosin binding ([1]; Nb29 Log[M] -7): 113.212% and 110.763% and 99.0136%
[3H]prazosin binding ([1]; Nb29 Log[M] -8): 94.5235% and 106.273% and 100.209%
[3H]prazosin binding ([1]; Nb29 Log[M] -9): 103.737% and 106.273%
[3H]prazosin binding ([1]; Nb29 Log[M] -10): 99.4509% and 97.7015% and 89.1005%
pKi ([1]; Nb29 as competitor): 4.39 ± 0.40
Ki [8]: 4900 nM
agonist activity on its own [4]: no agonist activity
effect on maximum efficacy of α1AAR activation [4]: slightly reduces
α1AAR activation (Noradrenaline %) ([4]; Nb29 alone Log[M] -4): 8.574% and 8.426% and 7.756%
α1AAR activation (Noradrenaline %) ([4]; Nb29 alone Log[M] -5): 10.7076% and 10.0868% and 10.3298%
α1AAR activation (Noradrenaline %) ([4]; Nb29 alone Log[M] -6): 8.0538% and 8.0467% and 7.523%
α1AAR activation (Noradrenaline %) ([4]; Nb29 alone Log[M] -7): 5.836% and 5.21% and 5.469%
α1AAR activation (Noradrenaline %) ([4]; Nb29 alone Log[M] -8): 4.832% and 4.868% and 5.077%
α1AAR activation (Noradrenaline %) ([4]; Nb29 alone Log[M] -9): 4.7489% and 4.768% and 4.504%
α1AAR activation (Noradrenaline %) ([4]; Nb29 alone Log[M] -10): 4.612% and 4.823% and 4.852%
α1AAR activation (Noradrenaline %) ([4]; Nb29 alone Log[M] -11): 4.776% and 4.958% and 4.729%
